In patent US20250011288A1 (BRISTOL-MYERS SQUIBB COMPANY, priority 2021, published 2025):

What follows are compounds tested against T1, human RXFP1 (Homo sapiens, UniProt Q9HBX9) (assay: human RXFP1 (hRXFP1) HEK293 cAMP assay (HTRF)). Conditions: HEK293 cells stably expressing human RXFP1, 30 min at room temperature.
T1 construct: expressed in transfected cells
T1 sequence (Q9HBX9 1-757): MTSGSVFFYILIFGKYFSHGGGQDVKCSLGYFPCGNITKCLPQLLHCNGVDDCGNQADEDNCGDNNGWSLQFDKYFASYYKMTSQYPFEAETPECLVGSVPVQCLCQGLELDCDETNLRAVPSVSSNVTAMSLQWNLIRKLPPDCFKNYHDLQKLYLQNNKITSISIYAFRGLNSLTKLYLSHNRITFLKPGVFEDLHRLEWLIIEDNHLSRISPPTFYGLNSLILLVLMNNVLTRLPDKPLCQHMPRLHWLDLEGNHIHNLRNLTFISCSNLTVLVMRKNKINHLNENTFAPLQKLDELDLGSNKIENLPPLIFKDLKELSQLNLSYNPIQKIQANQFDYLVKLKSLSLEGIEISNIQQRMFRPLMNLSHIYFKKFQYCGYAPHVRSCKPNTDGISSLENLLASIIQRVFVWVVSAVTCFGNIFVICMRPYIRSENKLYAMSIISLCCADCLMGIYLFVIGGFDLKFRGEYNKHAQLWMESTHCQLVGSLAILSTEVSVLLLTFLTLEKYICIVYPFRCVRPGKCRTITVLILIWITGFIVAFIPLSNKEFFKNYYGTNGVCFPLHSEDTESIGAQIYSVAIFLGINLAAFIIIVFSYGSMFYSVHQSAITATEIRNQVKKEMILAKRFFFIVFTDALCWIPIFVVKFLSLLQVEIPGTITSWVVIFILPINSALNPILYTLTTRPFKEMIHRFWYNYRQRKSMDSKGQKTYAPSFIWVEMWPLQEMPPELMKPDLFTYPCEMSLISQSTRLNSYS
Type: cell-based
Summary of the method: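 HEK293 cells stably expressing human RXFP1 (1500 cells/well) in HBSS/20 mM HEPES/0.05% BSA/0.5 mM IBMX, treated with compound (0.010 nM–50 µM final, 2% DMSO) for 30 min at room temperature. Intracellular cAMP read by HTRF; potency from 4-parameter logistic fit of cAMP versus concentration.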
COc1ncc(C2=NOC3CC(C(C)(C)O)CC23)cc1C(=O)N[C@H]1[C@@H](C(=O)Nc2ccc(F)c(C(F)(F)F)c2)[C@H]2CC[C@@H]1/C2=C\C1CC1 (stereo partly drawn) [Example 109, N-((1R,2R,3S,4R,Z)-7-(cyclopropylmethylene)-3-((4-fluoro-3-(trifluoromethyl)phenyl)carbamoyl)bicyclo[2.2.1]heptan-2-yl)-5-(5-(2-hydroxypropan-2-yl)-3a,5,6,6a-tetrahydro-4H-cyclopenta[d]isoxazol-3-yl)-2-methoxynicotinamide] showed an EC50 of 2.7 nM.
In the case of CC(C)(O)CN1CC2ON=C(c3cc4c(c(C(=O)N[C@H]5[C@@H](C(=O)Nc6ccc(F)c(C(F)(F)F)c6)[C@H]6CC[C@@H]5/C6=C\C5CC5)c3)OC(C)(C)C4)C2C1 (stereo partly drawn) [Example 179, N-[(1R,2R,3S,4R, 7Z)-7-(cyclopropyl-methylidene)-3-{[4-fluoro-3-(trifluoromethyl)phenyl]carbamoyl}bicyclo[2.2.1]heptan-2-yl]-5-[5-(2-hydroxy-2-methylpropyl)-3aH,4H,5H,6H, 6aH-pyrrolo[3,4-d][1,2]oxazol-3-yl]-2,2-dimethyl-2,3-dihydro-1-benzofuran-7-carboxamide], the EC50 is reported as 6.5 nM.
COc1ncc(-c2c(C)nn3c2COCC3)cc1C(=O)N[C@H]1[C@@H](C(=O)Nc2ccc(F)c(C(F)(F)F)c2)[C@H]2CC[C@@H]1/C2=C\C1CCCC1 [Example 150, N-[(1R,2R,3S,4R, 7Z)-7-(cyclopentyl-methylidene)-3-{[4-fluoro-3-(trifluoromethyl)phenyl]carbamoyl}bicyclo[2.2.1]heptan-2-yl]-2-methoxy-5-{2-methyl-4H,6H,7H-pyrazolo[3,2-c][1,4]oxazin-3-yl}pyridine-3-carboxamide] showed an EC50 of 5.3 nM.
O=C(N[C@@H]1C2CCC(/C2=C/C2CC2)[C@@H]1C(=O)Nc1ccc(F)c(C(F)(F)F)c1)c1cncc(C2=NOC3COCC23)c1 (single isomer, unassigned) [Example 63] showed an EC50 of 120 nM.
Work on COc1ncc(C#CCO)cc1C(=O)N[C@@H]1C2CCC(/C2=C/C(F)(F)F)[C@@H]1C(=O)Nc1ccc(F)c(C(F)(F)F)c1 (stereo partly drawn) [Example 49, N-[(2R,3S,7Z)-3-{[4-fluoro-3-(trifluoromethyl)phenyl]carbamoyl}-7-(2,2,2-trifluoroethylidene)bicyclo[2.2.1]heptan-2-yl]-5-(3-hydroxyprop-1-yn-1-yl)-2-methoxypyridine-3-carboxamide] yielded an EC50 of 153 nM.
COc1ncc(C2=NO[C@@H]3C[C@H](CO)CN23)cc1C(=O)N[C@@H]1C2CCC(/C2=C/C2CCCC2)[C@@H]1C(=O)Nc1ccc(F)c(C(F)(F)F)c1 (stereo partly drawn) [Example 133, N-((1R,2R,3S,4R,Z)-7-(cyclopentyl-methylene)-3-((4-fluoro-3-(trifluoromethyl)phenyl)carbamoyl)bicyclo[2.2.1]heptan-2-yl)-5-((6S,7aR)-6-(hydroxymethyl)-5,6,7,7a-tetrahydropyrrolo [1,2-d][1,2,4]oxadiazo 1-3-yl)-2-methoxynicotinamide] gave an EC50 of 2.1 nM.
Work on CC(C)(C)CNC(=O)[C@@H]1[C@H](NC(=O)c2cc(C3=NOC4CC(CO)CC34)cc3c2OC(C)(C)C3)[C@@H]2CC[C@H]1/C2=C/C1CC1 (stereo partly drawn) [Example 146, N-[(1R,2R,3S, 4R,7Z)-7-(cyclopropyl-methylidene)-3-[(2,2-dimethylpropyl)carbamoyl]bicyclo [2.2.1]heptan-2-yl]-5-[5-(hydroxymethyl)-3aH,4H,5H,6H,6aH-cyclopenta[d][1,2]oxazol-3-yl]-2,2-dimethyl-2,3-dihydro-1-benzofuran-7-carboxamide] yielded an EC50 of 3.5 nM.
With COc1ncc(C2=NOC3CC(CO)CC23)cc1C(=O)N[C@@H]1C2CCC(/C2=C/C2CC2)[C@@H]1C(=O)Nc1ccc(F)c(C(F)(F)F)c1 (single isomer, unassigned) [Example 69] the EC50 was 1.5 nM.
Compound COc1ncc(-c2cc([C@H](OC(=O)N3CCS(=O)(=O)CC3)C(F)(F)F)ccc2F)cc1C(=O)N[C@@H]1C2CCC(/C2=C/C2CC2)[C@@H]1C(=O)Nc1ccc(F)c(C(F)(F)F)c1 (stereo partly drawn) [Example 187, (1S)-1-[3-(5-{[(2R,3S,7Z)-7-(cyclopropyl-methylidene)-3-{[4-fluoro-3-(trifluoromethyl)phenyl]carbamoyl}bicyclo[2.2.1]heptan-2-yl]carbamoyl}-6-methoxypyridin-3-yl)-4-fluorophenyl]-2,2,2-trifluoroethyl 1,1-dioxo-1λ^6-thiomorpholine-4-carboxylate] has an EC50 of 5.3 nM.
Work on COc1ncc(C2=NOC3CC(C(O)C(F)(F)F)CC23)cc1C(=O)N[C@H]1[C@@H](C(=O)Nc2ccc(F)c(C(F)(F)F)c2)[C@H]2CC[C@@H]1/C2=C\C1CC1 (stereo partly drawn) [Example 135, N-((1R,2R,3S,4R,Z)-7-(cyclopropyl-methylene)-3-((4-fluoro-3-(trifluoromethyl)phenyl)carbamoyl)bicyclo[2.2.1]heptan-2-yl)-2-methoxy-5-(5-(2,2,2-trifluoro-1-hydroxyethyl)-3a,5,6,6a-tetrahydro-4H-cyclopenta[d]isoxazol-3-yl)nicotinamide] yielded an EC50 of 4 nM.
COc1ncc(C2=NOC3CN(CC(O)C(F)(F)F)CC23)cc1C(=O)N[C@H]1[C@@H](C(=O)Nc2ccc(F)c(C(F)(F)F)c2)[C@H]2CC[C@@H]1/C2=C\C1CC1 (stereo partly drawn) [Example 180, N-[(1R,2R,3S,4R, 7Z)-7-(cyclopropyl-methylidene)-3-{[4-fluoro-3-(trifluoromethyl)phenyl]carbamoyl}bicyclo[2.2.1]heptan-2-yl]-2-methoxy-5-[5-(3,3,3-trifluoro-2-hydroxypropyl)-3aH,4H,5H,6H, 6aH-pyrrolo[3,4-d][1,2]oxazol-3-yl]pyridine-3-carboxamide] gave an EC50 of 4.3 nM.
In the case of COc1ncc(C2=NOC3CC(O)CC23)cc1C(=O)N[C@H]1[C@@H](C(=O)Nc2ccc(F)c(C(F)(F)F)c2)[C@H]2CC[C@@H]1/C2=C\C1CCCC1 (stereo partly drawn) [Example 126, N-((1R,2R,3S,4R,Z)-7-(cyclopentylmethylene)-3-((4-fluoro-3-(trifluoromethyl)phenyl)carbamoyl)bicyclo[2.2.1]heptan-2-yl)-5-(5-hydroxy-3a,5,6,6a-tetrahydro-4H-cyclopenta[d]isoxazol-3-yl)-2-methoxynicotinamide], the EC50 is reported as 4.2 nM.
COc1ncc(C2=NOC3CC(C(OC(=O)Nc4ccccc4)C(F)(F)F)CC23)cc1C(=O)N[C@H]1[C@@H](C(=O)Nc2ccc(F)c(C(F)(F)F)c2)[C@H]2CC[C@@H]1/C2=C\C1CCCC1 (stereo partly drawn) [Example 174, 1-[3-(5-{[(1R,2R,3S,4R, 7Z)-7-(cyclopentyl-methylidene)-3-{[4-fluoro-3-(trifluoromethyl)phenyl]carbamoyl}bicyclo[2.2.1]heptan-2-yl]carbamoyl}-6-methoxypyridin-3-yl)-3aH,4H,5H,6H, 6aH-cyclopenta[d][1,2]oxazol-5-yl]-2,2,2-trifluoroethyl N-phenylcarbamate] was tested, and the EC50 was 1.9 nM.
With COc1cnc(-c2cc([C@H](OC(=O)Nc3ccccc3)C(F)(F)F)ccc2F)cc1C(=O)N[C@@H]1C2CCC(/C2=C/C(F)(F)F)[C@@H]1C(=O)Nc1ccc(F)c(C(F)(F)F)c1 (stereo partly drawn) [Example 38, (1S)-2,2,2-trifluoro-1-14-fluoro-3-(4-{[(2R,3S,7Z)-3-{[4-fluoro-3-(trifluoromethyl)phenyl]carbamoyl}-7-(2.2,2-trifluoroethylidene)bicyclo[2.2.1]heptan-2-yl]carbamoyl}-5-methoxypyridin-2-yl)phenyl]ethyl N-phenylcarbamate] the EC50 was 63 nM.
For COc1ncc(C2=NOC3CC(CO)CC23)cc1C(=O)N[C@H]1[C@@H](C(=O)N[C@H](C)C2(C)CC2(F)F)[C@H]2CC[C@@H]1/C2=C\C(F)(F)F (stereo partly drawn) [Example 118, N-((1R,2R,3S,4R,Z)-3-(((1R)-1-(2,2-difluoro-1-methylcyclopropyl)ethyl)carbamoyl)-7-(2,2,2-trifluoroethylidene)bicyclo[2.2.1]heptan-2-yl)-5-(5-(hydroxymethyl)-3a,5,6,6a-tetrahydro-4H-cyclopenta[d]isoxazol-3-yl)-2-methoxynicotinamide], the EC50 was 4 nM.
Work on COc1cnc(C2=NOC3COCC23)cc1C(=O)N[C@H]1[C@@H](C(=O)Nc2ccc(F)c(C(F)(F)F)c2)[C@H]2CC[C@@H]1/C2=C\C1CC1 (single isomer, unassigned) [Example 72] yielded an EC50 of 160 nM.
COc1ncc(-c2cc([C@H](OC(=O)NC3CC3)C(F)(F)F)ccc2F)cc1C(=O)N[C@H]1[C@@H](C(=O)Nc2ccc(F)c(C(F)(F)F)c2)[C@H]2CC[C@@H]1/C2=C\CCC(F)(F)F [Example 165, (1S)-2,2,2-trifluoro-1-[4-fluoro-3-(5-{[(1R,2R,3S,4R, 7Z)-3-{[4-fluoro-3-(trifluoromethyl)phenyl]carbamoyl}-7-(4,4,4-trifluorobutylidene)bicyclo[2.2.1]heptan-2-yl]carbamoyl}-6-methoxypyridin-3-yl)phenyl]ethyl N-cyclopropyl-carbamate] gave an EC50 of 1.2 nM.
